Laboratory results as given in US9944618B2, “Inhibiting neurotransmitter reuptake” (Mayo Foundation for Medical Education and Research, priority 2013, dated 2018).
Read-outs that look alike come from different tables or passages of the source.

Columns and labels:
[1] = molecular target: human norepinephrine transporter (Homo sapiens (Human), UniProt P23975); experiment: Human NET (norepinephrine transporter) uptake assay; type: cell-based; conditions: read-out: hNET Ki
How it was run: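 HEK293F cells transfected with human NET were thawed, plated at about 60,000 cells/well and held at 37 °C for at least 3 h. Compounds came from 10 mM DMSO stocks, with nomifensine as control, in 1×HBSS/0.02 M HEPES. Uptake was followed with a neurotransmitter transporter dye, dosed as % of vendor reconstitution, in triplicate.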

[2] = molecular target: human dopamine transporter (Homo sapiens (Human), UniProt Q01959); experiment: Human DAT (dopamine transporter) uptake assay; type: cell-based; conditions: read-out: hDAT Ki
Chain of human dopamine transporter (Q01959 whole entry): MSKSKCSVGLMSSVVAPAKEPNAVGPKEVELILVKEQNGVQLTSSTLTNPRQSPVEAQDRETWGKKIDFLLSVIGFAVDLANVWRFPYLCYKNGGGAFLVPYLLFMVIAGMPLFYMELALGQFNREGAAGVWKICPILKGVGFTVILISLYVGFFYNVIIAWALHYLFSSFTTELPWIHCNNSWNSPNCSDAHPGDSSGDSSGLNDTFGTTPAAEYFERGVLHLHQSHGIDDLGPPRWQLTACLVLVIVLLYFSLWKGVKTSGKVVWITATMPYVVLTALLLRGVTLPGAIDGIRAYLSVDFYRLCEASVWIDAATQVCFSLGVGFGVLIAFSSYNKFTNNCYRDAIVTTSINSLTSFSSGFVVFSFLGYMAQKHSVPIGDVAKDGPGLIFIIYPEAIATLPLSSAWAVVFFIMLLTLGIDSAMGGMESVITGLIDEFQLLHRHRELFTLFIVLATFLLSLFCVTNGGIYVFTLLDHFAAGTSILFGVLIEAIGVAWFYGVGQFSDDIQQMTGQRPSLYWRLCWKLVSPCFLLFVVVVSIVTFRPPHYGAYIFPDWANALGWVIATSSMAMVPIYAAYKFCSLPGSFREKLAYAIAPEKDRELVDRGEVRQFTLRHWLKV
Protocol: This protocol was designed to measure inhibition of uptake by the human dopamine transporter. […] The Assay Buffer (AB) was 1×HBSS and 0.02 M HEPES.
(§1) The HEK293F cells were transfected with the human dopamine transporter and frozen in 1 mL aliquots at about 1E+07 cells/mL. On the day of the experiment, the cells were removed from −80° C. or liquid nitrogen and thawed in a room temperature water bath. The cells were dilute to about 1-2E+06 with Freestyle medium. A 1 mL sample (1:2 dilution) was prepared, and the cells were counted. The cells were spun at 1100 rpm for 5 minutes, and the medium was aspirated off. The cells were resuspend in medium at 1.5E+06 cells/mL for about 60,000 cells per well. 40 μL of cells were dispensed per well in the Biocoat plates. The plates were spun at 1100 rpm for 1 minute to improve homogeneity of the cell layer and were incubated at 37° C. for a minimum of 3 hours.
12 μL of test compound (10 mM) in DMSO was added to the wells, and nomifensine was used as a control. […] The neurotransmitter transporter dye was prepared in AB prior to use.
Due to the proprietary nature of the dye formulation, all dye concentrations were expressed as a percentage of the vendor-recommended dye reconstitution. Thus, the above calculations were valid when both [dye] and K1 were expressed in the same units (%). Compounds were tested in triplicate (n=3).

[3] = molecular target: human serotonin transporter (Homo sapiens (Human), UniProt P31645); experiment: Human SERT (serotonin transporter) uptake assay; type: cell-based; conditions: read-out: hSERT Ki
Chain of human serotonin transporter (P31645 whole entry): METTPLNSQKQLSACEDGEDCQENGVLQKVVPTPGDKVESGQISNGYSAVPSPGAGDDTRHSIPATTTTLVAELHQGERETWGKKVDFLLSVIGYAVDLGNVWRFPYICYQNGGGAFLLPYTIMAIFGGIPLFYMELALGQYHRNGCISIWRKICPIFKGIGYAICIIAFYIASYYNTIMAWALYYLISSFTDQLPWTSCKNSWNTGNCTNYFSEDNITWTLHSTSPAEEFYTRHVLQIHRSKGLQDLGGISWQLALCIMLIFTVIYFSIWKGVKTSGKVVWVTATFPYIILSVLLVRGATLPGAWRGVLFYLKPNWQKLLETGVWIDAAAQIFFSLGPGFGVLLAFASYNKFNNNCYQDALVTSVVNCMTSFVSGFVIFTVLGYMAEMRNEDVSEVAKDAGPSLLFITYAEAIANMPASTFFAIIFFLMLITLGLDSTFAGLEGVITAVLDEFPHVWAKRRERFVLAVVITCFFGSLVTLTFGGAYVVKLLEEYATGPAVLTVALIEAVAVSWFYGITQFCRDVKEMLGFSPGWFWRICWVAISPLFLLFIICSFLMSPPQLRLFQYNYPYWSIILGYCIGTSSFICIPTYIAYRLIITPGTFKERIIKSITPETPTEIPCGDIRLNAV
Protocol: This protocol was designed to measure inhibition of uptake by the human serotonin transporter. […] The Assay Buffer (AB) was […] and 0.02 M HEPES.
as §1, with “serotonin” for “dopamine”
12 μL of test compound (10 mM) in DMSO was added to the wells, and nomifensine was used as a control. Fluoxetine (final assay concentration of 10 μM) was used for background signal. The neurotransmitter transporter dye was prepared in AB prior to use.
Due to the proprietary nature of the dye formulation, all dye concentrations were expressed as a percentage of the vendor-recommended dye reconstitution. Thus, the above calculations were valid when both [dye] and Km were expressed in the same units (%). Compounds were tested in triplicate (n=3).

CYP3A4 = CYP3A4 (Homo sapiens (Human), UniProt P08684); experiment: Cytochrome P450 inhibition assay, recombinant CYP3A4 (BFC substrate); type: in vitro ADME; conditions: recombinant enzyme
Chain of CYP3A4 (P08684 whole entry): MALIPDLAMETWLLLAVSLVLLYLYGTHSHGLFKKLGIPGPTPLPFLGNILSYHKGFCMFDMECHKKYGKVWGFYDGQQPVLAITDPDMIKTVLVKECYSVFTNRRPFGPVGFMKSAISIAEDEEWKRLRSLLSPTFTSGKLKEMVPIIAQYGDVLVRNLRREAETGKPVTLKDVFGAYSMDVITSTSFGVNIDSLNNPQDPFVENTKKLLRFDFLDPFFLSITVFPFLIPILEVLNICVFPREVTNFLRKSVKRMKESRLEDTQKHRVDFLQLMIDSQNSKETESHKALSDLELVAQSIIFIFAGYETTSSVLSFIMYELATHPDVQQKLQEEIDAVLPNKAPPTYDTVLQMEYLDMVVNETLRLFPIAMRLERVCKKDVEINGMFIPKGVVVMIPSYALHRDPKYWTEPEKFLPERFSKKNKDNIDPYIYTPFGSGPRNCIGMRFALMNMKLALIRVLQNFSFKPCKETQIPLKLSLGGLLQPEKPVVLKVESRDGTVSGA
Protocol: Recombinant enzymes, 3A4 and 2D6, generated using the ABL yeast expression system were used. […] The assay mixture also included K2HPO4 (pH 7.4; conc. 0.1 M) and NADPH (conc. 1 mM). The incubation time was 30 minutes, and the reference inhibitor was A-naphthoflavone. For CYP2D6, the enzyme amount was 2 pmol per well, and the substrate (7-methoxy-4-(aminomethyl)-coumarin; MAMC) was used at 20 μM. The assay mixture also included K2HPO4 (pH 7.4; conc. 0.1 M) and NADPH (conc. 0.06 mM). The incubation time was 35 minutes, and the reference inhibitor was quinidine.
Briefly, 0.6 μL of serially diluted compound was added to 75 μL water. 10 μL of diluted compound in water was then added to each assay plate. 20 μL of a K2HPO4, enzyme, and substrate mixture was added. After 10 minutes of room temperature pre-incubation, 10 μL of NADPH was added, and the plates were placed at 37° C. for 30 or 35 minutes depending on the enzyme being tested. After the incubation was complete, 20 μL of 0.1% Tris/ACN was added to the plate. The plate was read on a FluorStar fluorescence plate reader.

CYP2D6 = CYP2D6 (Homo sapiens (Human), UniProt P10635); experiment: Cytochrome P450 inhibition assay, recombinant CYP2D6 (MAMC substrate); type: in vitro ADME; conditions: recombinant enzyme
Chain of CYP2D6 (P10635 whole entry): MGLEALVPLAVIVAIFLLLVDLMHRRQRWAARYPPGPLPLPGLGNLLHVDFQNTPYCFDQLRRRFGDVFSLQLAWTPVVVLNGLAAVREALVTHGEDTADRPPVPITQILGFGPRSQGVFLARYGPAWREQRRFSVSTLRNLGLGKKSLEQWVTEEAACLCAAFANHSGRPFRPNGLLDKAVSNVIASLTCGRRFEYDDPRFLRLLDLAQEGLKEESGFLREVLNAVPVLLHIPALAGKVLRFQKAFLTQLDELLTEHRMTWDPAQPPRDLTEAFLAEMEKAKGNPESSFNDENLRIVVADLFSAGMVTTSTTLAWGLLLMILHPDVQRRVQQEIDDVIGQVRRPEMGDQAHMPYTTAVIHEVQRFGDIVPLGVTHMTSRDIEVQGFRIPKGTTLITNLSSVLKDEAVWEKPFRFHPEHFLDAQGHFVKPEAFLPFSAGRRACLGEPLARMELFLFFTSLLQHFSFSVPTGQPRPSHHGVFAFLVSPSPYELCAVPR

[4] = pKa of basic centres (Table 1); type: physicochemical
[5] = first base, e.g., an aliphatic primary, secondary, or tertiary amine, read-out: pKa (Base 1)
[6] = second base in the same molecule (if present), read-out: pKa (Base 2)

Chain of human norepinephrine transporter (P23975 whole entry): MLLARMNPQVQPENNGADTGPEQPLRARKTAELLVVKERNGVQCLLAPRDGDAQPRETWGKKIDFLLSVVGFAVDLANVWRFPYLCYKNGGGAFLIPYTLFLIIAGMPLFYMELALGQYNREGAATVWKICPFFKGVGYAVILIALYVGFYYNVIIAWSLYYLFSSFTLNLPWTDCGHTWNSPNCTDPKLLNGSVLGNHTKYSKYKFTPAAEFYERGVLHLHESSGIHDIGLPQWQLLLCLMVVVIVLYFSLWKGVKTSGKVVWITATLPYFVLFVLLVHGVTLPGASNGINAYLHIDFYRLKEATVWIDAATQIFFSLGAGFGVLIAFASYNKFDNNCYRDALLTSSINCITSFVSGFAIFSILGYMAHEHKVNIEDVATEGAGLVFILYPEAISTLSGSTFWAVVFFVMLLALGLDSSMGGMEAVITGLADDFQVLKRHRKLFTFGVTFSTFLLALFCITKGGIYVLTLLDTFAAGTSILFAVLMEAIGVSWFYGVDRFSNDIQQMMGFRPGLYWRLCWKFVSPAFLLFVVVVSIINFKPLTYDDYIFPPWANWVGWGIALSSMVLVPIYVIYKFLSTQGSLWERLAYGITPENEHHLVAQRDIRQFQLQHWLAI

Structure (SMILES) | Ki [1] | Ki [2] | Ki [3] | IC50 (CYP3A4) | IC50 (CYP2D6) | pKa [4, 5] | pKa [4, 6] | pKa (Base 1) ([4]; first base, e.g., an aliphatic primary, secondary, or tertiary amine) | pKa (Base 2) ([4]; second base in the same molecule (if present))
CNC[C@@H](c1ccc(Cl)c(Cl)c1)[C@@H](O)c1cccc(N(C)C)c1 (single isomer, unassigned) [Compound 108] | 88.5 nM | 57.1 nM | 754 nM | ≥ 20000 nM | 2200 nM | 9.5 | 4.9 | – | –
CNC[C@@H](c1ccc(Cl)c(Cl)c1)[C@@H](O)c1cccc([S+](C)[O-])c1 (single isomer, unassigned) [Compound 116] | 195 nM | 39.7 nM | 1690 nM | 20000 nM | 15000 nM | 9.4 | – | – | –
CNC[C@H](c1ccc(Cl)c(Cl)c1)[C@H](O)c1cccc(N(C)C)c1 (single isomer, unassigned) [Compound 168] | 89.3 nM | 144 nM | 178 nM | 4600 nM | 780 nM | 9.5 | 4.9 | – | –
CNC[C@H](c1ccc(Cl)c(Cl)c1)[C@H](O)c1cccc([N+](=O)[O-])c1 [Compound 102] | 55.2 nM | 29.3 nM | 86.2 nM | 5700 nM | 120 nM | 9.3 | – | – | –
CNC[C@@H](c1ccc2ccccc2c1)[C@@H](O)c1cccnc1 [Compound 103] | 57.6 nM | 91.9 nM | 58.6 nM | 20000 nM | 11000 nM | – | – | 9.6 | 5.1
CNC[C@H](c1ccc(Cl)c(Cl)c1)[C@@H](O)c1cccnc1OC [Compound 104] | 60.6 nM | 94.6 nM | 656 nM | 270 nM | 66 nM | 9.2 | 3.2 | – | –
CNC[C@@H](c1ccc(Cl)c(Cl)c1)[C@@H](O)c1ccsc1 [Compound 106] | 80.6 nM | 19.7 nM | 742 nM | 20000 nM | 3900 nM | 9.5 | – | – | –
NCC(c1ccc2ccccc2c1)C(O)c1ccc(F)cc1F (stereo not shown) [Compound 107] | 82.2 nM | 126 nM | 727 nM | 19000 nM | 2400 nM | 8.5 | – | – | –
CNC[C@@H](c1ccc(Cl)c(Cl)c1)[C@@H](O)c1cncc(OC)c1 [Compound 109] | 120 nM | 66.7 nM | 646 nM | 20000 nM | 1100 nM | 9.3 | 4.5 | – | –
NCC[C@@H](Cc1cccnc1)c1ccc(Cl)c(Cl)c1 [Compound 112] | 148 nM | 273 nM | 154 nM | 18000 nM | 2900 nM | 8.6 | 5.1 | – | –
CNC[C@@H](c1ccc2ccccc2c1)[C@@H](OCC(N)=O)c1ccccc1 [Compound 117] | 236 nM | 12.9 nM | 796 nM | 20000 nM | 5500 nM | 9.6 | – | – | –
CNC[C@@H](c1ccc(Cl)c(Cl)c1)[C@@H](O)c1cccc(N)c1 [Compound 119] | 257 nM | 75.5 nM | 1780 nM | 7900 nM | 4100 nM | 9.4 | 4.3 | – | –
CNC[C@@H](c1ccc(Cl)c(Cl)c1)[C@@H](O)c1cccc(SC)c1 [Compound 120] | 262 nM | 88.5 nM | 662 nM | 9000 nM | 2400 nM | 9.4 | – | – | –
CNC[C@@H](c1ccc(Cl)c(Cl)c1)[C@@H](O)c1cccc(NS(=O)(=O)C(F)(F)F)c1 [Compound 121] | 270 nM | 5 nM | 2850 nM | 20000 nM | 20000 nM | 9.4 | – | – | –
CNC[C@@H](c1ccc2ccccc2c1)[C@@H](O)c1cncc(OC)c1 [Compound 122] | 273 nM | 49.6 nM | 124 nM | 20000 nM | 3400 nM | 9.6 | 4.5 | – | –
CNC[C@@H](c1ccc(Cl)c(Cl)c1)[C@@H](O)c1cccc(N2CCOCC2)c1 [Compound 125] | 371 nM | 65.3 nM | 725 nM | 4800 nM | 2400 nM | 9.4 | 5.1 | – | –
NC[C@@H](c1ccc2ccccc2c1)[C@@H](O)c1ccc(Cl)nc1 [Compound 126] | 500 nM | 125 nM | 107 nM | 20000 nM | 3900 nM | 8.3 | – | – | –
CNC[C@H](c1ccc(Cl)c(Cl)c1)[C@@H](O)c1cccc(NS(=O)(=O)C(F)(F)F)c1 [Compound 127] | 649 nM | 80.5 nM | 3280 nM | 20000 nM | 15000 nM | 9.4 | – | – | –
CNC[C@@H](c1ccc(Cl)c(Cl)c1)[C@@H](O)c1ccccc1[S+](C)[O-] (stereo partly shown) [Compound 128] | 2630 nM | 193 nM | 3040 nM | 20000 nM | 19000 nM | 9.4 | – | – | –

Now from value to compound, other results behind:

Ki [1] | Ki [2] | Ki [3] | IC50 (CYP3A4) | IC50 (CYP2D6) | pKa [4, 5] | pKa [4, 6] | Structure (SMILES) | pKa (Base 1) ([4]; first base, e.g., an aliphatic primary, secondary, or tertiary amine) | pKa (Base 2) ([4]; second base in the same molecule (if present))
1.4 nM | 10.9 nM | 2.5 nM | 20000 nM | 300 nM | 6.6 | – | CN1CO[C@H](c2ccccc2)[C@@H](c2ccc3ccccc3c2)C1 [Compound 4] | – | –
1.6 nM | 52.6 nM | 2.7 nM | 20000 nM | 880 nM | 9.6 | 5.4 | CNC[C@H](c1ccc2ccccc2c1)[C@H](O)c1ccncc1 [Compound 12] | – | –
2.2 nM | 21.9 nM | 71.4 nM | 20000 nM | 1400 nM | 9.4 | 4.3 | CNC[C@H](c1ccc(Cl)c(Cl)c1)[C@H](O)c1cccc(N)c1 [Compound 24] | – | –
2.7 nM | 15.8 nM | 0.7 nM | 20000 nM | 560 nM | 9.6 | – | CNC[C@H](c1ccc2ccccc2c1)[C@H](OCCO)c1ccccc1 [Compound 32] | – | –
4.6 nM | 1630 nM | 1.8 nM | 20000 nM | 810 nM | 10 | – | CNC[C@H](c1ccc(OC)c(C)c1)[C@H](O)c1cccnc1 [Compound 55] | – | –
6.7 nM | 78.2 nM | 853 nM | 8300 nM | 2800 nM | 9.4 | 4.3 | CNC[C@H](c1ccc(Cl)c(Cl)c1)[C@@H](O)c1cccc(N)c1 [Compound 63] | – | –
10.4 nM | 505 nM | 2.1 nM | 16000 nM | 560 nM | 10 | 4.8 | CNCC(Cc1ccccc1)c1ccc2cccnc2c1 (stereo not shown) [Compound 75] | – | –
54.4 nM | 73 nM | 2740 nM | 20000 nM | 3500 nM | 9.3 | – | CNC[C@H](c1ccc(Cl)c(Cl)c1)[C@H](O)c1cccc(S(C)(=O)=O)c1 [Compound 101] | – | –
34.6 nM | 52.7 nM | 116 nM | 10000 nM | 580 nM | 9.4 | – | NC[C@@H](Cc1ccccc1O)c1ccc2ccccc2c1 [Compound 133] | – | –
32.6 nM | 91.9 nM | 296 nM | 20000 nM | 370 nM | 9.6 | – | CNC[C@H](c1ccc2ccccc2c1)[C@@H](O)c1cc(F)cc(F)c1 [Compound 141] | – | –
